ChEMBL document CHEMBL1201862, “PubChem BioAssay data set” (2004)
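48-hour exposure; five concentrations; linearly interpolated endpoints. GI50 is the concentration that inhibits growth by half.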 The source made the active and inactive calls. Rule as the data show it: active = GI50 up to about 1.1 µM and inactive = higher. *1 amine or outer side, *2 acyl side, *3 side chain or, on linkers, in order; H or OH if unused. Where a SMILES comes first, the peptide text is derived from it. [ ]: non-standard residue; d: D form. The star is where a group is joined. X31 = CC(=O)N(C)SCC(N[*:1])C(=O)[*:2]; Fmoc = O=C(OCC1c2ccccc2-c2ccccc21)*; For = O=C*

Columns and labels:
Test in all cases: inhibition of tumour cell growth, NCI panel, 48 h
786-0 = system: 786-0
CCRF-CEM = system: CCRF-CEM
DU-145 = system: DU-145
EKVX = system: EKVX
HCT-15 = system: HCT-15
HL-60 = system: HL-60
IGROV-1 = system: IGROV-1
MCF7 = system: MCF7
MDA-MB-231 = system: MDA-MB-231
Malme-3M = system: Malme-3M
NCI-H23 = system: NCI-H23
NCI-H460 = system: NCI-H460
SF-295 = system: SF-295
SK-MEL-2 = system: SK-MEL-2
SK-MEL-5 = system: SK-MEL-5
SK-OV-3 = system: SK-OV-3
SN12C = system: SN12C
SNB-75 = system: SNB-75
SW-620 = system: SW-620
T47D = system: T47D

Cn1c(=O)c2nc(SCCN3CCOCC3)[nH]c2n(C)c1=S
GI50 (786-0): > 100 µM (inactive) | GI50 (CCRF-CEM): > 100 µM (inactive) | GI50 (DU-145): > 100 µM (inactive) | GI50 (EKVX): > 100 µM (inactive) | GI50 (HCT-15): > 100 µM | GI50 (HL-60): > 100 µM (inactive) | GI50 (IGROV-1): > 100 µM (inactive) | GI50 (MCF7): > 100 µM (inactive) | GI50 (MDA-MB-231): > 100 µM (inactive) | GI50 (Malme-3M): > 100 µM (inactive) | GI50 (NCI-H23): > 100 µM (inactive) | GI50 (NCI-H460): > 100 µM (inactive) | GI50 (SF-295): > 100 µM (inactive) | GI50 (SK-MEL-2): > 100 µM (inactive) | GI50 (SK-MEL-5): > 100 µM (inactive) | GI50 (SK-OV-3): > 100 µM (inactive) | GI50 (SN12C): > 100 µM (inactive) | GI50 (SNB-75): > 100 µM (inactive) | GI50 (SW-620): > 100 µM (inactive) | GI50 (T47D): > 100 µM (inactive)

COc1cc2c(OC)c3cc(C)oc(=O)c3c(O)c2c(O)c1-c1c(OC)cc2c(OC)c3cc(C)oc(=O)c3c(O)c2c1O
GI50 (786-0): 22.2 µM (inactive) | GI50 (CCRF-CEM): 18.6 µM (inactive) | GI50 (DU-145): 33.9 µM (inactive) | GI50 (EKVX): 21.9 µM (inactive) | GI50 (HCT-15): 18.5 µM | GI50 (HL-60): 15.2 µM (inactive) | GI50 (IGROV-1): 14 µM (inactive) | GI50 (MCF7): 25.6 µM (inactive) | GI50 (MDA-MB-231): 18.4 µM (inactive) | GI50 (Malme-3M): 17.7 µM (inactive) | GI50 (NCI-H23): 16.6 µM (inactive) | GI50 (NCI-H460): 21.6 µM (inactive) | GI50 (SF-295): 18.6 µM (inactive) | GI50 (SK-MEL-2): 17.5 µM (inactive) | GI50 (SK-MEL-5): 16.7 µM (inactive) | GI50 (SK-OV-3): 45.2 µM (inactive) | GI50 (SN12C): 20.7 µM (inactive) | GI50 (SNB-75): 45.1 µM (inactive) | GI50 (SW-620): 30 µM (inactive) | GI50 (T47D): 36.4 µM (inactive)

CC(=O)N(C)SCC(NC(=O)C(Cc1ccccc1)NC(=O)OCC1c2ccccc2-c2ccccc21)C(=O)NC(Cc1ccccc1)C(=O)NC(Cc1cn(C=O)c2ccccc12)C(=O)NC(CCCCNC(=O)OCC1c2ccccc2-c2ccccc21)C(=O)NC(C(=O)NC(CSN(C)C(C)=O)C(=O)NC(C(N)=O)C(C)O)C(C)O (stereo not given) (Fmoc-F[X31]FW(For)K(Fmoc)T[X31]T-NH2; configuration not given here)
GI50 (786-0): > 100 µM (inactive) | GI50 (CCRF-CEM): > 100 µM (inactive) | GI50 (DU-145): > 100 µM (inactive) | GI50 (EKVX): 84.9 µM (inactive) | GI50 (HCT-15): 95.1 µM | GI50 (HL-60): > 100 µM (inactive) | GI50 (IGROV-1): 66.4 µM (inactive) | GI50 (MCF7): 47.4 µM (inactive) | GI50 (MDA-MB-231): 14.9 µM (inactive) | GI50 (Malme-3M): > 100 µM (inactive) | GI50 (NCI-H23): 20.8 µM (inactive) | GI50 (NCI-H460): 33.5 µM (inactive) | GI50 (SF-295): 89.5 µM (inactive) | GI50 (SK-MEL-2): 40.6 µM (inactive) | GI50 (SK-MEL-5): 55.1 µM (inactive) | GI50 (SK-OV-3): 37.2 µM (inactive) | GI50 (SN12C): > 100 µM (inactive) | GI50 (SNB-75): 33.1 µM (inactive) | GI50 (SW-620): > 100 µM (inactive) | GI50 (T47D): > 100 µM (inactive)
